Data on 10 molecules can be found in ChEMBL document CHEMBL5230156, “Chromosome Region Maintenance 1 (XPO1/CRM1) as an Anticancer Target and Discovery of Its Inhibitor” (J Med Chem, 2021).

Broadly, the IC50 is the concentration at which inhibition is half-maximal. One may read the inhibition as how much of the control response was suppressed. As a reminder, the EC50 is the midpoint of the concentration-response curve. A higher EC50 goes with a need for much substance.

SMILES strings stand for the structures.

Experiment [1] relates to NSCLC. Kind of experiment: Antitumor activity against human NSCLC cells. Format: functional, cell-based.
Experiment [2] has as its system SK-N-BE(2). Kind of experiment: Antiproliferative activity against human SK-N-BE(2) cells by CCK-8 assay. The format is functional, cell-based. Conditions: SKNBE2. For orientation: Formazan colour is commonly taken as a measure of viable cells.
In experiment [3] the test system is SH-SY5Y. Kind of experiment: Antiproliferative activity against human SH-SY5Y cells by CCK-8 assay. The format is functional, cell-based.
Experiment [4] concerns HeLa. Kind of experiment: Growth inhibition of human HeLa cells measured after 48 hrs by MTT assay. The format is functional, cell-based.
For experiment [5], the system named is SGC-7901. Kind of experiment: Growth inhibition of human SGC-7901 cells assessed as inhibition rate at 5 uM relative to control. The format is functional.
The subject of experiment [6] is SGC-7901. Kind of experiment: Growth inhibition of human SGC-7901 cells assessed as inhibition rate at 50 uM relative to control. Format: functional.
Experiment [7] concerns SGC-7901. Kind of experiment: Growth inhibition of human SGC-7901 cells assessed as inhibition rate at 100 uM relative to control. The format is functional.
Experiment [8] relates to SGC-7901. Kind of experiment: Growth inhibition of human SGC-7901 cells assessed as inhibition rate at 150 uM relative to control. The format is functional.
The nature of experiment [9]: Inhibition of HIV Rev activity. More on the design: species or system Human immunodeficiency virus.
For experiment [10], the system named is SMMC-7721. Kind of experiment: Antitumor activity against human SMMC-7721 cells measured after 6 hrs. The format is functional, cell-based. The following applies: SMMC-7721, 6 h.
Experiment [11] has as its system SMMC-7721. Kind of experiment: Antitumor activity against human SMMC-7721 cells measured after 12 hrs. The format is functional, cell-based. Conditions: SMMC-7721, 12 h.
Experiment [12] relates to SMMC-7721. Kind of experiment: Antitumor activity against human SMMC-7721 cells measured after 24 hrs. The format is functional, cell-based. Conditions: SMMC-7721, 24 h.
Experiment [13] in a line: Cytotoxicity against human L9981 cells assessed as inhibition of tumor growth measured after 72 hrs by MTT assay. The following applies: L9981, 72 h. The format is functional, cell-based.
The nature of experiment [14]: Cytotoxicity against human NL9980 cells assessed as inhibition of tumor growth measured after 72 hrs by MTT assay. Format: functional, cell-based. Conditions: NL9980, 72 h.
The subject of experiment [15] is HCT-15. Kind of experiment: Antiproliferative activity against human HCT-15 cells assessed as cell viability measured after 3 hrs by CCK-8 assay. Format: functional, cell-based. The following applies: HCT-15, 3 h.
Experiment [16] has as its system HT-29. Kind of experiment: Antiproliferative activity against human HT-29 cells assessed as cell viability measured after 3 hrs by CCK-8 assay. Format: functional, cell-based. Conditions: HT-29, 3 h.
Experiment [17] has as its system HCT-15. Kind of experiment: Inhibition of colony formation in human HCT-15 cells at 1 uM incubated for 14 days by crystal violet staining based cell clonogenic assay. Conditions: HCT-15, 336 h, time 14 day. Format: functional.
For experiment [18], the system named is HCT-15. Kind of experiment: Inhibition of colony formation in human HCT-15 cells at 4 uM incubated for 14 days by crystal violet staining based cell clonogenic assay. Format: functional. Conditions: HCT-15, 336 h, time 14 day.
Experiment [19] concerns HCT-15. Kind of experiment: Inhibition of colony formation in human HCT-15 cells at 2 uM incubated for 14 days by crystal violet staining based cell clonogenic assay. The format is functional. The following applies: HCT-15, 336 h, time 14 day.
For experiment [20], the system named is HCT-15. Kind of experiment: Anticancer activity against human HCT-15 cells assessed as decrease in invading cells at 0.5 uM measured after 36 hrs. Format: functional.
The test system of experiment [21] is HCT-15. Kind of experiment: Anticancer activity against human HCT-15 cells assessed as decrease in invading cells at 1 uM measured after 36 hrs. Format: functional.
A short description of experiment [22]: Inhibition of nuclear export in human HeLa cells. Format: functional, cell-based.
Experiment [23] relates to HCT-15. Kind of experiment: Antitumor activity against wild type human HCT-15 cells. The format is functional, cell-based.
Experiment [24] deals with HCT-15. Kind of experiment: Antitumor activity against CRM1 knockout human HCT-15 cells. The format is functional, cell-based.

As to `O=C(/C=C\n1cnc(-c2cc(C(F)(F)F)cc(C(F)(F)F)c2)n1)NNc1cnccn1` [SELINEXOR], in experiment [1], the IC50 is 0.025 µM.

With `O=C(/C=C\n1cnc(-c2cc(C(F)(F)F)cc(C(F)(F)F)c2)n1)NNc1ccccn1` [VERDINEXOR], the IC50 in experiment [2] amounted to 1.4 µM; in experiment [3], 0.3 µM.

Regarding `COc1cc(/C=C/C(=O)N2CCC=CC2=O)cc(OC)c1OC` [PIPLARTINE], the IC50 in experiment [4] amounted to 16.3 µM.

The molecule `COc1cc(/C=C/C(=O)CC(=O)/C=C/c2ccc(O)c(OC)c2)ccc1O` [CURCUMIN] showed an IC50 in experiment [4] of 32.4 µM.

Consider `C=C1C(=O)[C@]23[C@H](O)[C@H]1CC[C@H]2[C@@]12CO[C@]3(O)[C@@H](O)[C@@H]1C(C)(C)CC[C@@H]2O` [ORIDONIN], for which, in [5], the inhibition at 5 µM worked out at 20%. Further, in [6], the inhibition at 50 µM stood at 35%. In addition, the inhibition at 100 µM in experiment [7] is 75%. In addition, the inhibition at 150 µM in experiment [8] was 90%.

As to `CC1=C(COCCC(C)(C)C)C(=O)N(Nc2ccc(C(F)(F)F)c(Cl)n2)C1=O`, the concentration for half-maximal inhibition (IC50) in experiment [9] worked out at 5.5 µM.

`CC1=CC(=O)c2c(O)cccc2C1=O` [PLUMBAGIN]: the half-maximal inhibitory concentration (IC50) in [10] came to 36.1 µM; in [11] it was 5.41 µM; in experiment [12], 2.43 µM; in experiment [13] it was 9 µM; in experiment [14] it was 7.5 µM.

With `CC1=C(C)C(=O)N(Nc2ccc(Cl)c(Cl)n2)C1=O`, the IC50 in experiment [15] came to 1.2 µM; in [16], 0.97 µM. In addition, the values for the inhibition at 1 µM in experiment [17] and in experiment [21] were 58.5% and 67%, respectively. This molecule also registered an inhibition at 4 µM in [18] of 91.4%. Also, testing at 2 µM in [19] gave an inhibition of 83.2%. Also, the inhibition at 0.5 µM in [20] amounted to 44%.

As to `CC(C)CCNC/C=C/[S+]([O-])c1cc(C(F)(F)F)cc(C(F)(F)F)c1` (stereo not given), the half-maximal effective concentration (EC50) in experiment [22] turned out to be 3.2 µM.

As to `[O-][S+](/C=C/CCN=C=S)c1cc(C(F)(F)F)cc(C(F)(F)F)c1` (stereo not given), the 50% inhibitory concentration (IC50) was 0.151 µM in experiment [23] and 14 µM in experiment [24].
